Measurements published in patent US11078202B2, “β-lactamase inhibitor and use thereof” (priority 2018, dated 2021).
Counter-ions that a name gives are not always drawn.

Assays:
Format in all cases: cell-based
[1] = test system: Acinetobacter baumannii XNWB 0007; assay: MIC assay of test compounds combined with ceftazidime (8 μg/mL); conditions: ceftazidime 8 μg/mL fixed
Procedure: (§1) The bacterial strains used for the minimum inhibitory concentration (MIC) test were frozen in a −80° C. ULT freezer and thawed 2 days before use. A small amount of frozen bacterial strains were scraped using a sterile inoculating loop, streaked onto a TSA solid culture dish for inoculation, and then cultured for 20-24 h at 35±2° C. in a normal atmospheric environment. 5-10 colonies with similar morphology were picked from the culture dish using a sterile inoculating loop and then re-streaked onto a suitable solid culture dish. Then the dish was placed into a normal incubator for culture for 20-24 h at 35±2° C. 5-10 single bacterial colonies were picked from the solid culture dish, resuspended in 500 μL of 0.9% NaCl, and adjusted to an OD600 of 0.1-0.15 with a spectrophotometer. The bacteria were then diluted 300-fold with 1.1×CAMHB. […] Dilution of test compounds: […] 2 μL of each compound in the dilution master plate of the test compounds was transferred to the corresponding well of the assay plates. In the mean time, 2 μL of 100% DMSO was transferred to the compound-free wells (GC and SC wells). (1) 8 μL of imipenem in the additive plate of imipenem was transferred to the corresponding wells of the assay plates; (2) 8 μL of ceftazidime in the additive plate of ceftazidime was transferred to the corresponding wells of the assay plates; (3) 8 μL of ampicillin in the additive plate of ampicillin was transferred to the corresponding wells of the assay plates. 90 μL of corresponding bacterial inocula were added to wells (except for SC wells) of the assay plates. After addition, the 6 assay plates were covered by sterile covers. The mixtures in the assay plates were centrifuged by a centrifuge at 1000 rpm for 30 s, and mixed uniformly by oscillating with a microplate oscillator at 800 rpm for 1 min, and then cultured in a common incubator for 16-20 h at 35±2° C. The minimum inhibitory concentration of each compound was recorded by reference to guidelines from the Clinical and Laboratory Standards Institute. […] The effect of the test compounds in combination with imipenem, ceftazidime, and ampicillin was also tested. […] The bacterial inocula in the assay plates were resuscitated from TSA and diluted in CAMHB, while growth controls (GC wells) and sterile controls (SC wells) were set up in the assay plates. The minimum inhibitory concentration of each compound combination against different bacteria was observed and recorded after the assay plates were incubated in a common incubator at 35±2° C. for 16-20 h, and the results are shown in Tables 1-3.

[2] = test system: Klebsiella pneumoniae XNWB 0001; assay: as above; conditions: ceftazidime 8 μg/mL fixed
Procedure: as §1

[3] = test system: Klebsiella pneumoniae XNWB 0002; assay: as above; conditions: ceftazidime 8 μg/mL fixed
Procedure: as §1

[4] = test system: Klebsiella pneumoniae XNWB 0003; assay: as above; conditions: ceftazidime 8 μg/mL fixed
Procedure: as §1

[5] = test system: Klebsiella pneumoniae XNWB 0004; assay: as above; conditions: ceftazidime 8 μg/mL fixed
Procedure: as §1

[6] = test system: Klebsiella pneumoniae XNWB 0005; assay: as above; conditions: ceftazidime 8 μg/mL fixed
Procedure: as §1

[7] = test system: Klebsiella pneumoniae XNWB 0006; assay: as above; conditions: ceftazidime 8 μg/mL fixed
Procedure: as §1

[8] = test system: Pseudomonas aeruginosa XNWB 0008; assay: as above; conditions: ceftazidime 8 μg/mL fixed
Procedure: as §1

[9] = test system: Acinetobacter baumannii XNWB 0007; assay: MIC assay of test compounds combined with imipenem (4 μg/mL); conditions: imipenem 4 μg/mL fixed
Procedure: as §1

[10] = test system: Klebsiella pneumoniae XNWB 0001; assay: as above; conditions: imipenem 4 μg/mL fixed
Procedure: as §1

[11] = test system: Klebsiella pneumoniae XNWB 0002; assay: as above; conditions: imipenem 4 μg/mL fixed
Procedure: as §1

[12] = test system: Klebsiella pneumoniae XNWB 0003; assay: as above; conditions: imipenem 4 μg/mL fixed
Procedure: as §1

[13] = test system: Klebsiella pneumoniae XNWB 0004; assay: as above; conditions: imipenem 4 μg/mL fixed
Procedure: as §1

[14] = test system: Klebsiella pneumoniae XNWB 0005; assay: as above; conditions: imipenem 4 μg/mL fixed
Procedure: as §1

[15] = test system: Klebsiella pneumoniae XNWB 0006; assay: as above; conditions: imipenem 4 μg/mL fixed
Procedure: as §1

[16] = test system: Pseudomonas aeruginosa XNWB 0008; assay: as above; conditions: imipenem 4 μg/mL fixed
Procedure: as §1

Row | SMILES | The minimum concentration of test compounds combined with ceftazidime (8 μg/mL) for bacteriostasis [1] | The minimum concentration of test compounds combined with ceftazidime (8 μg/mL) for bacteriostasis [2] | The minimum concentration of test compounds combined with ceftazidime (8 μg/mL) for bacteriostasis [3] | The minimum concentration of test compounds combined with ceftazidime (8 μg/mL) for bacteriostasis [4] | The minimum concentration of test compounds combined with ceftazidime (8 μg/mL) for bacteriostasis [5] | The minimum concentration of test compounds combined with ceftazidime (8 μg/mL) for bacteriostasis [6] | The minimum concentration of test compounds combined with ceftazidime (8 μg/mL) for bacteriostasis [7] | The minimum concentration of test compounds combined with ceftazidime (8 μg/mL) for bacteriostasis [8] | The minimum concentration of test compounds combined with imipenem (4 μg/mL) for bacteriostasis [9] | The minimum concentration of test compounds combined with imipenem (4 μg/mL) for bacteriostasis [10] | The minimum concentration of test compounds combined with imipenem (4 μg/mL) for bacteriostasis [11] | The minimum concentration of test compounds combined with imipenem (4 μg/mL) for bacteriostasis [12] | The minimum concentration of test compounds combined with imipenem (4 μg/mL) for bacteriostasis [13] | The minimum concentration of test compounds combined with imipenem (4 μg/mL) for bacteriostasis [14] | The minimum concentration of test compounds combined with imipenem (4 μg/mL) for bacteriostasis [15] | The minimum concentration of test compounds combined with imipenem (4 μg/mL) for bacteriostasis [16]
1 | N=C(N)NCCc1nnc([C@@H]2CC3(CC3)[C@@H]3CN2C(=O)N3OS(=O)(=O)O)o1 [Example 5, (1R,4S)-4-(5-(2-guanidinoethyl)-1,3,4-oxadiazol-2-yl)-6-oxo-5,7-diazaspiro[bicycle [3.2.1]octane-2,1′-cyclopropan]-7-yl sulfate] | C (C: 16-128 μg/mL) | A (A: <8 μg/mL) | A (A: <8 μg/mL) | A (A: <8 μg/mL) | B (B: 8-16 μg/mL) | B (B: 8-16 μg/mL) | A (A: <8 μg/mL) | C (C: 16-128 μg/mL) | B (B: 8-16 μg/mL) | A (A: <8 μg/mL) | A (A: <8 μg/mL) | A (A: <8 μg/mL) | A (A: <8 μg/mL) | A (A: <8 μg/mL) | A (A: <8 μg/mL) | B (B: 8-16 μg/mL)
2 | NCCCc1nnc([C@@H]2CC3(CC3)[C@@H]3CN2C(=O)N3OS(=O)(=O)O)o1 [Example 6, sodium (1R,4S)-4-(5-(3-aminopropyl)-1,3,4-oxadiazol-2-yl)-6-oxo-5,7-diazaspiro [bicycle[3.2.1]octane-2,1′-cyclopropan]-7-yl sulfate] | C (C: 16-128 μg/mL) | A (A: <8 μg/mL) | A (A: <8 μg/mL) | B (B: 8-16 μg/mL) | B (B: 8-16 μg/mL) | B (B: 8-16 μg/mL) | A (A: <8 μg/mL) | C (C: 16-128 μg/mL) | B (B: 8-16 μg/mL) | A (A: <8 μg/mL) | A (A: <8 μg/mL) | A (A: <8 μg/mL) | A (A: <8 μg/mL) | A (A: <8 μg/mL) | A (A: <8 μg/mL) | B (B: 8-16 μg/mL)
3 | NCCCCc1nnc([C@@H]2CC3(CC3)[C@@H]3CN2C(=O)N3OS(=O)(=O)O)o1 [Example 7, (1R,4S)-4-(5-(4-aminobutyl)-1,3,4-oxadiazol-2-yl)-6-oxo-5,7-diazaspiro[bicycle[3.2.1]octane-2,1′-cyclopropan]-7-yl sulfate] | C (C: 16-128 μg/mL) | B (B: 8-16 μg/mL) | A (A: <8 μg/mL) | B (B: 8-16 μg/mL) | B (B: 8-16 μg/mL) | B (B: 8-16 μg/mL) | A (A: <8 μg/mL) | C (C: 16-128 μg/mL) | B (B: 8-16 μg/mL) | A (A: <8 μg/mL) | A (A: <8 μg/mL) | A (A: <8 μg/mL) | A (A: <8 μg/mL) | A (A: <8 μg/mL) | A (A: <8 μg/mL) | B (B: 8-16 μg/mL)
4 | N=C1NCC(c2nnc([C@@H]3CC4(CC4)[C@@H]4CN3C(=O)N4OS(=O)(=O)O)o2)N1 (stereo partly drawn) [Example 8, (1R,4S)-4-(5-(2-iminoimidazolidin-4-yl)-1,3,4-oxadiazol-2-yl)-6-oxo-5,7-diazaspiro [bicyclo[3.2.1]octane-2,1′-cyclopropan]-7-yl sulfate] | C (C: 16-128 μg/mL) | A (A: <8 μg/mL) | A (A: <8 μg/mL) | A (A: <8 μg/mL) | A (A: <8 μg/mL) | A (A: <8 μg/mL) | A (A: <8 μg/mL) | B (B: 8-16 μg/mL) | A (A: <8 μg/mL) | A (A: <8 μg/mL) | A (A: <8 μg/mL) | A (A: <8 μg/mL) | A (A: <8 μg/mL) | A (A: <8 μg/mL) | A (A: <8 μg/mL) | A (A: <8 μg/mL)
